# Literature values as cited in US9303066B2 (priority 2011, dated 2016).
# Positions of bridges follow the written chain, without caps; N, C: chain ends. Residues, ends and D or L forms follow the SMILES beside them. No end group written: not given here.
# Experiments:
# GC-C [1] = target: T1, GC-C (Homo sapiens, UniProt P25092); parameters: from tissue; host or cells: intestinal epithelium (luminal surface) in vivo; details: in vivo, po
# [2] = in vivo, po
# [3] = 37° C.
# GC-C [4] = target: T1, GC-C; details: cultured GC-C-expressing cells
# T1 sequence (P25092 24-1073, species assumed): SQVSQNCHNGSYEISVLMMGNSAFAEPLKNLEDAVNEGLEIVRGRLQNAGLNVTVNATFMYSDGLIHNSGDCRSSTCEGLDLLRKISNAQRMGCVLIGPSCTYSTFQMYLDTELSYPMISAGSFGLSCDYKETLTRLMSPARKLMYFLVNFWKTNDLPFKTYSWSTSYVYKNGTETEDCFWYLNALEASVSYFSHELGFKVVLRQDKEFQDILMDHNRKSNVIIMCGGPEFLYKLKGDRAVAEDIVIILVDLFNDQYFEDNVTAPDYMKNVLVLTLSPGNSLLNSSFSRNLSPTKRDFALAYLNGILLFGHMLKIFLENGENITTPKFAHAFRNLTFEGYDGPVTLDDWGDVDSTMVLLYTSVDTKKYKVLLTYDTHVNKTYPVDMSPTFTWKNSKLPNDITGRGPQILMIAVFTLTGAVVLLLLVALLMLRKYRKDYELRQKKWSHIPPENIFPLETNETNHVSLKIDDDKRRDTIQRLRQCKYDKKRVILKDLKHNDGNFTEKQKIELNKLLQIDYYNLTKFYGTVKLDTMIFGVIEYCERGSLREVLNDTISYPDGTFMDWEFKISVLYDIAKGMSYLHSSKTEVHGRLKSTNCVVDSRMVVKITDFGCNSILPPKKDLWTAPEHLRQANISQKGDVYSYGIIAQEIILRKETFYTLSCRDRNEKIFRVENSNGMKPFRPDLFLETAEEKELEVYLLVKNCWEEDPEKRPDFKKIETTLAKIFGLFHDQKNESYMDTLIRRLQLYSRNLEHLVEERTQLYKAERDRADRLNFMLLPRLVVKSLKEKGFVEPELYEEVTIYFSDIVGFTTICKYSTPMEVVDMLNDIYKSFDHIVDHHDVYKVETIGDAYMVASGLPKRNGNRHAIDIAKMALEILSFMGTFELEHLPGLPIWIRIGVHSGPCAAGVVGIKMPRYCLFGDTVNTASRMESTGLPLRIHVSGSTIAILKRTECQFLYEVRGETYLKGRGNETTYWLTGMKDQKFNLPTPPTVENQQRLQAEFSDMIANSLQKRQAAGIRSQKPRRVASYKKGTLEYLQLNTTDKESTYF
molecule,measurement,setting,value
"C[C@@H]1NC(=O)[C@@H]2CCCN2C(=O)[C@H](CC(N)=O)NC(=O)[C@@H]2CSSC[C@H](N)C(=O)N[C@H]3CSSC[C@H](NC1=O)C(=O)N[C@@H]([C@@H](C)O)C(=O)NCC(=O)N[C@H](C(=O)N[C@@H](Cc1ccc(O)cc1)C(=O)O)CSSC[C@H](NC(=O)[C@H](Cc1ccc(O)cc1)NC(=O)[C@H](CCC(=O)O)NC3=O)C(=O)N2 [Linaclotide] (H-CCEYCCNPACTGCY-OH; disulfide 1-6, 2-10, 5-13)",GI transit,GC-C [1],increased GI transit
same,bloating,GC-C [1],reduced bloating
same,visceral pain,GC-C [1],reduced visceral pain
same,levels seen systemically,[2],no detectable levels
NDDCELCVNVACTGCL (cysteine pairing not given here) [human Ugn],half-life of each form (A and B conformation),[3],about 2 days
"UgnB: B conformational stereoisomer of human uroguanylin, separated by HPLC (NDDCELCVNVACTGCL; disulfide 4-12, 7-15; also: B conformational stereoisomer (HPLC-separated); UniProt Q16661 97-112, looked up)",fold less potent than UgnA,GC-C [4],more than 100 fold
